SMILES strings stand for the structures. pIC50: −log10 of the molar value.

Broadly, the inhibition is how much of the control response was suppressed. Low values mean a response near the control, high ones a response far below the control. Broadly, the pIC50 is −log10 of the IC50, conventionally taken in molar units. Read a low pIC50 as a large IC50.

The subject of the assay is Hh pathway (Smo) in Shh-Light II cells. As to the kind of experiment: Shh-Light II Reporter Assay (firefly/Renilla luciferase). Conditions: Mus musculus; for pIC50: 3 uM Purmorphamine stimulation, 30 hrs. It is filed as cell-based. The procedure:
Shh-Light II Reporter Assay
Assay designed to measure firefly and Renilla luciferase, in the same well.
Prior to assay the Shh-Light II cells (ATCC Catalog No. CRL-2795) were cultured in growth media
Day −1: seed 60,000 Shh-Light II cells in assay medium 75 uL/well, in presence of DMSO/inhibitor.
Day 0: after overnight incubation at 37° C. 10% CO2 add 3 uM of Purmorphamine (Calbiochem 540220) in water.
Day 1: After 30 hrs at 37° C. 10% CO2 of incubation develop the assay, directly to cells in growth medium. • Add 75 μl of DualGlow Luciferase Reagent (Promega, E2940) • Incubate 10 min. in the dark • Read plate at Luminometer: TopCount, by PerkinElmer • Add 75 ul of DualGlow Stop & Glow • Incubate 10 min. in the dark • Read plate at Luminometer: TopCount, by PerkinElmer. • Output is the ratio between FireFly/Renilla counts Growth Media: For Growth:
DMEM: Dulbecco's Mod Eagle Medium with 0.11 G/L Pyr, with Pyridoxine. (GIBCO Cat No: 41966-029). The medium has complemented with 10% FCS (fetal bovine serum), 1% Penicillin-Streptomycin (10 mg/ml) (GIBCO, 15140-114) and 1% L-Glutamine 200 mM (100×) (GIBCO, 3042190) and 0.4 mg/ml of G418 (Roche) and 0.15 mg/ml Zeocyne (Invitrogen R-250-01). Cells cultured at 10% CO2.
DMEM: Dulbecco's Mod Eagle Medium with 0.11 G/L Pyr, with Pyridoxine. (GIBCO Cat No: 21063-045), without Phenol Red. The medium has complemented with 2% FCS (fetal bovine serum), 1% Penicillin-Streptomycin (10 mg/ml) (GIBCO, 15140-114) and 1% L-Glutamine 200mM (100×) (GIBCO, 3042190). Cells cultured at 10% CO2. DMSO 0.25%.

For the setting “5 μM compound”, `Cn1c(-c2ccccc2C(F)(F)F)nnc1C12CCC(c3noc(C(C)(F)F)n3)(CC1)CC2` [Example 1, 5-(1,1-Difluoroethyl)-3-(4-{4-methyl-5-[2-(trifluoromethyl)phenyl]-4H-1,2,4-triazol-3-yl}bicyclo[2.2.2]oct-1-yl)-1,2,4-oxadiazole] gave an inhibition at 5 µM of 35%.

As for `Cn1c(-c2ccccc2C(F)(F)F)nnc1C12CCC(c3noc(C4CC(F)(F)C4)n3)(CC1)CC2` [Example 2, 5-(3,3-Difluorocyclobutyl)-3-(4-{4-methyl-5-[2-(trifluoromethyl)phenyl]-4H-1,2,4-triazol-3-yl}bicyclo[2.2.2]oct-1-yl)-1,2,4-oxadiazole], the pIC50 was 5.85. Still for that read-out and setting: the same measure for `Cn1c(-c2ccccc2C(F)(F)F)nnc1C12CCC(c3noc(C(C)(C)F)n3)(CC1)CC2` [Example 3, 5-(1-Fluoro-1-methylethyl)-3-(4-{4-methyl-5-[2-(trifluoromethyl)phenyl]-4H-1,2,4-triazol-3-yl}bicyclo[2.2.2]oct-1-yl)-1,2,4-oxadiazole]: 5.38; for `Cn1c(-c2ccccc2C(F)(F)F)nnc1C12CCC(c3nnc(C(C)(F)F)o3)(CC1)CC2` [Example 4, 2-(1,1-Difluoroethyl)-5-(4-{4-methyl-5-[2-(trifluoromethyl)phenyl]-4H-1,2,4-triazol-3-yl}bicyclo[2.2.2]oct-1-yl)-1,3,4-oxadiazole]: 5.03. With `Cn1c(-c2ccccc2C(F)(F)F)nnc1C12CCC(c3nnc(C4CC(F)(F)C4)o3)(CC1)CC2` [Example 5, 2-(3,3-Difluorocyclobutyl)-5-(4-{4-methyl-5-[2-(trifluoromethyl)phenyl]-4H-1,2,4-triazol-3-yl}bicyclo[2.2.2]oct-1-yl)-1,3,4-oxadiazole], the pIC50 was 5.70.

Source of the values: US7691887B2, “Triazole derivatives which are SMO antagonists” (Merck Sharp & Dohme Corp., priority 2007, dated 2010).
